Results as given in paper PMC6345968, “Structural basis for species-selective targeting of Hsp90 in a pathogenic fungus” (Nature Communications, 2019).

System: Raw264.7 macrophages
Experiment: Phagocytosis of GFP C. albicans by macrophages, flow cytometry
Format: cell-based, mouse
Conditions: 2 h pre-treatment
Procedure: Compromise of host immune function and other target-related toxicities preclude the use of non-species-selective Hsp90 inhibitors in the treatment of fungal infections. Host defense against invasive infection relies heavily on the ingestion and destruction of C. albicans by innate immune cells, such as macrophages. […] After an additional two hours, phagocytosis of the fluorescently labeled fungi was measured by flow cytometry. […] This Hsp90-dependent morphogenetic program has an important role in the organism’s virulence and interactions with host immune effectors such as macrophages.
The ingestion of GFP-marked C. albicans CaCi-2 (CaLC867, Table S4) by mouse macrophages was monitored using flow cytometry. Raw264.7 macrophage cultures were pre-treated with various concentrations of Hsp90 inhibitors for 2 h at 37 °C and then infected with fungus at a multiplicity of infection of ~2 for an additional 2 h. Wells were harvested by trypsinization and resultant cell suspensions incubated with Guava ViaCount reagent per manufacturer’s recommendation (Millipore Sigma, Cat #4000-0040). Red fluorescent signal was used to identify macrophages while green fluorescent signal identified the fungus. Dual positive (red and green) events with appropriate forward- and side-scatter parameters were quantitated as representative of ingestion of fungus by a macrophage. […]

COc1ccc(CON=C2C=CC=CC3OC3CC(C)OC(=O)c3c(O)cc(O)cc3C2)cc1 (stereo not shown) [CMLD013075]
effect on engulfment of C. albicans: Neither compound impaired engulfment
